Test results: the kinase profiling compilation of Christmann-Franck et al. (2016)

Key:
Assay in all cases: radiometric filter-binding kinase assay, Kinase HotSpot
STK3 (human) = STK3 (human) (UniProt Q13188); conditions: compound 0.5 µM; ATP 10 µM
FGFR2 (human) = FGFR2 (human) (UniProt P21802); conditions: compound 0.5 µM; ATP 10 µM
FLT1 (human) = FLT1 (human) (UniProt P17948); conditions: compound 0.5 µM; ATP 10 µM
TGFBR1 (human) = TGFBR1 (human) (UniProt P36897); conditions: compound 0.5 µM; ATP 10 µM
DAPK3 (human) = DAPK3 (human) (UniProt O43293); conditions: compound 0.5 µM; ATP 10 µM
[1] = molecular target: JAK1 JH1 catalytic (human) (UniProt P23458); conditions: compound 0.5 µM; ATP 10 µM
ADRBK1 (human) = ADRBK1 (human) (UniProt P25098); conditions: compound 0.5 µM; ATP 10 µM
ADRBK2 (human) = ADRBK2 (human) (UniProt P35626); conditions: compound 0.5 µM; ATP 10 µM
CDK9 CCNK (human) = CDK9 CCNK (human) (UniProt O75909+P50750); conditions: compound 0.5 µM
Sequence of CDK9 CCNK (human) (O75909 whole entry, looked up): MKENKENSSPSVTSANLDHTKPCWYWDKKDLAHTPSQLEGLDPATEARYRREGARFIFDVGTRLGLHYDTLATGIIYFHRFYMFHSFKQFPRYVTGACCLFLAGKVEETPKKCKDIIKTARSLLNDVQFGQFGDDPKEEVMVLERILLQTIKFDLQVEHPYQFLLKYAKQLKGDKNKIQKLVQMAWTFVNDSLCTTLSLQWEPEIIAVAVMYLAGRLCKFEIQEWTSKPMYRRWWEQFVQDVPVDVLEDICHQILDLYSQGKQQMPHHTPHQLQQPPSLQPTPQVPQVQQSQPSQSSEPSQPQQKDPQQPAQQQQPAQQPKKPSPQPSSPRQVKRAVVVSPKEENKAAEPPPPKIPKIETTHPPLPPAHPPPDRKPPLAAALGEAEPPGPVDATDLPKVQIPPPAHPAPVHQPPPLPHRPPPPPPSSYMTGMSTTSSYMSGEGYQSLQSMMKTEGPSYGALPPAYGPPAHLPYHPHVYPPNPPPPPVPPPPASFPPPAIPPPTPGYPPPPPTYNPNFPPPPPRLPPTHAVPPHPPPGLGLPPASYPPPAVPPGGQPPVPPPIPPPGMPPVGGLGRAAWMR
Sequence of CDK9 CCNK (human) (P50750 whole entry, looked up): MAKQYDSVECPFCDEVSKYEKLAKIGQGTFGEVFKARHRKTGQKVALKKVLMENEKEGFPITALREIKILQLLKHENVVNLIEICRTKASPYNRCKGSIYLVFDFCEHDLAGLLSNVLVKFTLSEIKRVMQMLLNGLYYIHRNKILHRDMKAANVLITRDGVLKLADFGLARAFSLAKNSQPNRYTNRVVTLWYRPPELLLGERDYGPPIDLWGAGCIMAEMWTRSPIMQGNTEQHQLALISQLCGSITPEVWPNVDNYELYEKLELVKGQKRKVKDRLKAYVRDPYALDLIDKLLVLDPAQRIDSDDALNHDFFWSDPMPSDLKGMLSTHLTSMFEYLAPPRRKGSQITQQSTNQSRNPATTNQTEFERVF

KDR (human) = KDR (human) (UniProt P35968); conditions: compound 0.5 µM; ATP 10 µM
FES (human) = FES (human) (UniProt P07332); conditions: compound 0.5 µM; ATP 10 µM
NEK4 (human) = NEK4 (human) (UniProt P51957); conditions: compound 0.5 µM; ATP 10 µM
MYLK (human) = MYLK (human) (UniProt Q15746); conditions: compound 0.5 µM
NEK2 (human) = NEK2 (human) (UniProt P51955); conditions: compound 0.5 µM; ATP 10 µM
BTK (human) = BTK (human) (UniProt Q06187); conditions: compound 0.5 µM; ATP 10 µM
DYRK3 (human) = DYRK3 (human) (UniProt O43781); conditions: compound 0.5 µM; ATP 10 µM
Sequence of DYRK3 (human) (O43781 whole entry, looked up): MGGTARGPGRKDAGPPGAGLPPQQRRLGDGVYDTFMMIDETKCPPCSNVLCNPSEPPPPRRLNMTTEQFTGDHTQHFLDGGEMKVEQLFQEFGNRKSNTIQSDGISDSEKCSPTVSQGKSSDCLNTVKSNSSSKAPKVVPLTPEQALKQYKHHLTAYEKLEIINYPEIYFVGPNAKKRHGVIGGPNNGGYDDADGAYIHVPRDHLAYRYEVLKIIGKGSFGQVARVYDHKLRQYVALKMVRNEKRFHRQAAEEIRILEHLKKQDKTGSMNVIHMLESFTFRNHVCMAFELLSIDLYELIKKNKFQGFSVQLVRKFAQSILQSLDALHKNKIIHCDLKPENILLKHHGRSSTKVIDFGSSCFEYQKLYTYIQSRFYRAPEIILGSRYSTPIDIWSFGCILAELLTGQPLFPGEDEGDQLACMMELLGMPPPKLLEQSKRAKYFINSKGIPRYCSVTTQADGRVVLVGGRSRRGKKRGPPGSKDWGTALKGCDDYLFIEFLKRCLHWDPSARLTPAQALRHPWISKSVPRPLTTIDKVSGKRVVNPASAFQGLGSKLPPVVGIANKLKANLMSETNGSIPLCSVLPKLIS

AKT3 (human) = AKT3 (human) (UniProt Q9Y243); conditions: compound 0.5 µM; ATP 10 µM
PRKACA (human) = PRKACA (human) (UniProt P17612); conditions: compound 0.5 µM
CAMK1D (human) = CAMK1D (human) (UniProt Q8IU85); conditions: compound 0.5 µM; ATP 10 µM
Sequence of CAMK1D (human) (Q8IU85 whole entry, looked up): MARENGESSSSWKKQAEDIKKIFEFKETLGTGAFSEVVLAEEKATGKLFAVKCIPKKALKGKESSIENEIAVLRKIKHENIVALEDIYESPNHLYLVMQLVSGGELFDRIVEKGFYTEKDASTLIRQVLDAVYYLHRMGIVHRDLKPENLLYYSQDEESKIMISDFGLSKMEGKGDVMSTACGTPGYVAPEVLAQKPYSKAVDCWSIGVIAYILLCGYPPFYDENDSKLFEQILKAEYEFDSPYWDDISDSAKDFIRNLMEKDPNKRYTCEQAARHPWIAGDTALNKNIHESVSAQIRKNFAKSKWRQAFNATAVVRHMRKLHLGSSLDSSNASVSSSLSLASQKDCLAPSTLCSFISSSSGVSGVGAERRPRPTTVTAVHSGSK

DYRK1A (human) = DYRK1A (human) (UniProt Q13627); conditions: compound 0.5 µM; ATP 10 µM
NTRK2 (human) = NTRK2 (human) (UniProt Q16620); conditions: compound 0.5 µM; ATP 10 µM
TAOK3 (human) = TAOK3 (human) (UniProt Q9H2K8); conditions: compound 0.5 µM; ATP 10 µM
MAPK8 (human) = MAPK8 (human) (UniProt P45983); conditions: compound 0.5 µM; ATP 10 µM
CSF1R (human) = CSF1R (human) (UniProt P07333); conditions: compound 0.5 µM; ATP 10 µM
RPS6KA2 KD1 KD2 (human) = RPS6KA2 KD1 KD2 (human) (UniProt Q15349); conditions: compound 0.5 µM; ATP 10 µM
CDK7 CCNH MNAT1 (human) = CDK7 CCNH MNAT1 (human) (UniProt P50613+P51948+P51946); conditions: compound 0.5 µM
Sequence of CDK7 CCNH MNAT1 (human) (P50613 whole entry, looked up): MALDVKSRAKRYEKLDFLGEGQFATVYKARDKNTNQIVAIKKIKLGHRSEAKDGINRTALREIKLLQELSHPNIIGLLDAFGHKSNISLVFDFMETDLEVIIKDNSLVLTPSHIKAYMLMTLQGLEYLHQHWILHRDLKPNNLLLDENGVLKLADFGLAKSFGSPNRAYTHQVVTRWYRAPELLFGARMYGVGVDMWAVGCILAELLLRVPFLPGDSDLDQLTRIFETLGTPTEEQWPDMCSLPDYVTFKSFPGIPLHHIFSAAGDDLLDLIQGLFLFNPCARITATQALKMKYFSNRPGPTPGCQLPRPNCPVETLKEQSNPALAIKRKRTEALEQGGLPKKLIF
Sequence of CDK7 CCNH MNAT1 (human) (P51946 whole entry, looked up): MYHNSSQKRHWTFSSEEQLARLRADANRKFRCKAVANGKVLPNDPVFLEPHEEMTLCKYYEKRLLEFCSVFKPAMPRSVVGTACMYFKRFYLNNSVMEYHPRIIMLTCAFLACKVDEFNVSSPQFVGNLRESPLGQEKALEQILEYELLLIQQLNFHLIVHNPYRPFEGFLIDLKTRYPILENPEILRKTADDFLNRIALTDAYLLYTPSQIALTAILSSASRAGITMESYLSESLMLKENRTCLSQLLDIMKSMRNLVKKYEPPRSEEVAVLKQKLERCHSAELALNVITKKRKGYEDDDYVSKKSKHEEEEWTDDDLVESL
Sequence of CDK7 CCNH MNAT1 (human) (P51948 whole entry, looked up): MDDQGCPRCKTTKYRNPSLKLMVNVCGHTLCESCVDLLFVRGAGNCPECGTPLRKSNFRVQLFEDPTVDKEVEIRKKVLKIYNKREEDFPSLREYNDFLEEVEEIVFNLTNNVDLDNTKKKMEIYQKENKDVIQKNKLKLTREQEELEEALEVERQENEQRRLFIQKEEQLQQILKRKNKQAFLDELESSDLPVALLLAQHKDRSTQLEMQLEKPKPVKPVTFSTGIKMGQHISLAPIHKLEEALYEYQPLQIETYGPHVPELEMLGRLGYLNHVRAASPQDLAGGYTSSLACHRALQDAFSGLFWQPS

NUAK2 (human) = NUAK2 (human) (UniProt Q9H093); conditions: compound 0.5 µM; ATP 10 µM
PHKG1 (human) = PHKG1 (human) (UniProt Q16816); conditions: compound 0.5 µM; ATP 10 µM
Sequence of PHKG1 (human) (Q16816 whole entry, looked up): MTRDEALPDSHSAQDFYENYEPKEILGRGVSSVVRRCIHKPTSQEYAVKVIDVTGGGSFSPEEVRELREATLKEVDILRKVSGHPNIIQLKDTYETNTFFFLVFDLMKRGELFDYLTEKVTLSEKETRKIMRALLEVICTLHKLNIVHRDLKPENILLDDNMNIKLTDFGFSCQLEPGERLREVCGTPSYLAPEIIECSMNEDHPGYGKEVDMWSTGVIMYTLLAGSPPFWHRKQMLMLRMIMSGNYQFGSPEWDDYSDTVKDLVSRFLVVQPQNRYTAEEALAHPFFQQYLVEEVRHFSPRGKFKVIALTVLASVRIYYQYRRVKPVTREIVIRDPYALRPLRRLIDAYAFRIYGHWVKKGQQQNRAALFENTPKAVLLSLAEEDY

TEK (human) = TEK (human) (UniProt Q02763); conditions: compound 0.5 µM; ATP 10 µM
PAK1 (human) = PAK1 (human) (UniProt Q13153); conditions: compound 0.5 µM; ATP 10 µM
CDK2 CCNE1 (human) = CDK2 CCNE1 (human) (UniProt P24941+P24864); conditions: compound 0.5 µM
STK33 (human) = STK33 (human) (UniProt Q9BYT3); conditions: compound 0.5 µM; ATP 10 µM
EPHA2 (human) = EPHA2 (human) (UniProt P29317); conditions: compound 0.5 µM; ATP 10 µM
MAPKAPK3 (human) = MAPKAPK3 (human) (UniProt Q16644); conditions: compound 0.5 µM; ATP 10 µM
Sequence of MAPKAPK3 (human) (Q16644 whole entry, looked up): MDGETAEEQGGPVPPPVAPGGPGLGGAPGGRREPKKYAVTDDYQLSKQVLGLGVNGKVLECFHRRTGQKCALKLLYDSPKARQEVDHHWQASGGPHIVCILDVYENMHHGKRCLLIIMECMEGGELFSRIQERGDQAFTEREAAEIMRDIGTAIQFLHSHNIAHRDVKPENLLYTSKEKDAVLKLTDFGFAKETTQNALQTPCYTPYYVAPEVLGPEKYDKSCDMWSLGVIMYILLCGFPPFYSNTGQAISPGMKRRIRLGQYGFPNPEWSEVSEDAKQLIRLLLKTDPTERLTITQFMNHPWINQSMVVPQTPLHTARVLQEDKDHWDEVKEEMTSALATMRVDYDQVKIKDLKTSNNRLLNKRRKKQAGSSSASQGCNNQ

MARK1 (human) = MARK1 (human) (UniProt Q9P0L2); conditions: compound 0.5 µM; ATP 10 µM
DYRK1B (human) = DYRK1B (human) (UniProt Q9Y463); conditions: compound 0.5 µM; ATP 10 µM
TXK (human) = TXK (human) (UniProt P42681); conditions: compound 0.5 µM; ATP 10 µM
CHUK (human) = CHUK (human) (UniProt O15111); conditions: compound 0.5 µM; ATP 10 µM
TSSK1B (human) = TSSK1B (human) (UniProt Q9BXA7); conditions: compound 0.5 µM; ATP 10 µM
Sequence of TSSK1B (human) (Q9BXA7 whole entry, looked up): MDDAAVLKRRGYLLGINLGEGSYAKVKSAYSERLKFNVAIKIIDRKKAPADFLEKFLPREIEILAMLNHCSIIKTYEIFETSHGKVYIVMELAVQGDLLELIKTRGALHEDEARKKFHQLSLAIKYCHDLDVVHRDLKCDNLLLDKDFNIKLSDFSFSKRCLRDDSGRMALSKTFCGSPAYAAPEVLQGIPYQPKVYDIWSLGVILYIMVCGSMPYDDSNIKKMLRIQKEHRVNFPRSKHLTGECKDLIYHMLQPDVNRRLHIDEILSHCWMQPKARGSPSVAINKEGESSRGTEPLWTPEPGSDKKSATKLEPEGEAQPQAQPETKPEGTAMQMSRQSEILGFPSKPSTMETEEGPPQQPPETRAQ

RPS6KA1 KD1 KD2 (human) = RPS6KA1 KD1 KD2 (human) (UniProt Q15418); conditions: compound 0.5 µM; ATP 10 µM
BLK (human) = BLK (human) (UniProt P51451); conditions: compound 0.5 µM; ATP 10 µM

Sequence of FGFR2 (human) (P21802 whole entry, looked up): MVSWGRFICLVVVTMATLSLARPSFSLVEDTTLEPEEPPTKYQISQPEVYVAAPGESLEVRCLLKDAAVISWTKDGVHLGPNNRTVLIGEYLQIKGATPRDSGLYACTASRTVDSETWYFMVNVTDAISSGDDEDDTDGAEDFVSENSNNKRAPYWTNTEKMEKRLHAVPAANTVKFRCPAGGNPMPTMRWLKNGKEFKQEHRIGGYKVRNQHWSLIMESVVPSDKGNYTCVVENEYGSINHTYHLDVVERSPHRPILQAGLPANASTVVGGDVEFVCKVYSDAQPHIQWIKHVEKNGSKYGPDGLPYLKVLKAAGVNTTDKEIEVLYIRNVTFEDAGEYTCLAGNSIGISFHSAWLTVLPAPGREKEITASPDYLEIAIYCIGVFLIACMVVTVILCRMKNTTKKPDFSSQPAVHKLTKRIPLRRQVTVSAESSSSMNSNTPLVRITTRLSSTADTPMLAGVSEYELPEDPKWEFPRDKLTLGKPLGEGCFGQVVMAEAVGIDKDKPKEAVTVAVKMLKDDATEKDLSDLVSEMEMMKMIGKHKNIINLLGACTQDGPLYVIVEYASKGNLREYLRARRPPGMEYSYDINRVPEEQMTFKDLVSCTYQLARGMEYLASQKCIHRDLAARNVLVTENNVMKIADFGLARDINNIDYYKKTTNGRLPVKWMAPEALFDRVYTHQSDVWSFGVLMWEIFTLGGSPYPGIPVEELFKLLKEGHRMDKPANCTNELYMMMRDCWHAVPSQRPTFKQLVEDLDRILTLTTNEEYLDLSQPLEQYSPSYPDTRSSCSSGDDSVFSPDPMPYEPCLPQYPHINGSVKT

O=c1[nH]c2ccccc2n1C1CCN(Cc2ccc(-c3nc4cc5[nH]cnc5cc4nc3-c3ccccc3)cc2)CC1
residual activity (STK3 (human)): 103%
residual activity (FGFR2 (human)): 94.2%
residual activity (FLT1 (human)): 92.2%
residual activity (TGFBR1 (human)): 102%
residual activity (DAPK3 (human)): 106%
residual activity [1]: 94.6%
residual activity (ADRBK1 (human)): 95.3%
residual activity (ADRBK2 (human)): 87.3%
residual activity (CDK9 CCNK (human)): 108%
residual activity (KDR (human)): 90.9%
residual activity (FES (human)): 101%
residual activity (NEK4 (human)): 106%
residual activity (MYLK (human)): 104%
residual activity (NEK2 (human)): 96.8%
residual activity (BTK (human)): 98.4%
residual activity (DYRK3 (human)): 101%
residual activity (AKT3 (human)): 103%
residual activity (PRKACA (human)): 106%
residual activity (CAMK1D (human)): 107%
residual activity (DYRK1A (human)): 101%
residual activity (NTRK2 (human)): 99.4%
residual activity (TAOK3 (human)): 111%
residual activity (MAPK8 (human)): 89.6%
residual activity (CSF1R (human)): 97%
residual activity (RPS6KA2 KD1 KD2 (human)): 101%
residual activity (CDK7 CCNH MNAT1 (human)): 99.1%
residual activity (NUAK2 (human)): 90.4%
residual activity (PHKG1 (human)): 106%
residual activity (TEK (human)): 102%
residual activity (PAK1 (human)): 90.6%
residual activity (CDK2 CCNE1 (human)): 95.6%
residual activity (STK33 (human)): 89.6%
residual activity (EPHA2 (human)): 103%
residual activity (MAPKAPK3 (human)): 104%
residual activity (MARK1 (human)): 104%
residual activity (DYRK1B (human)): 97.9%
residual activity (TXK (human)): 104%
residual activity (CHUK (human)): 90.1%
residual activity (TSSK1B (human)): 96.5%
residual activity (RPS6KA1 KD1 KD2 (human)): 101%
residual activity (BLK (human)): 106%

O=c1c2ccccc2[nH]c(=S)n1CCN1CCC(=C(c2ccc(F)cc2)c2ccc(F)cc2)CC1
residual activity (STK3 (human)): 102%
residual activity (FGFR2 (human)): 101%
residual activity (FLT1 (human)): 95.2%
residual activity (TGFBR1 (human)): 96.2%
residual activity (DAPK3 (human)): 102%
residual activity [1]: 105%
residual activity (ADRBK1 (human)): 100%
residual activity (ADRBK2 (human)): 102%
residual activity (CDK9 CCNK (human); ATP 10 µM): 104%
residual activity (KDR (human)): 93.1%
residual activity (FES (human)): 94.9%
residual activity (NEK4 (human)): 99.1%
residual activity (MYLK (human); ATP 10 µM): 96.2%
residual activity (NEK2 (human)): 100%
residual activity (BTK (human)): 105%
residual activity (DYRK3 (human)): 101%
residual activity (AKT3 (human)): 99.4%
residual activity (PRKACA (human); ATP 10 µM): 101%
residual activity (CAMK1D (human)): 96.8%
residual activity (DYRK1A (human)): 99.9%
residual activity (NTRK2 (human)): 106%
residual activity (TAOK3 (human)): 92.4%
residual activity (MAPK8 (human)): 98.9%
residual activity (CSF1R (human)): 102%
residual activity (RPS6KA2 KD1 KD2 (human)): 107%
residual activity (CDK7 CCNH MNAT1 (human); ATP 10 µM): 99.6%
residual activity (NUAK2 (human)): 106%
residual activity (PHKG1 (human)): 101%
residual activity (TEK (human)): 96.1%
residual activity (PAK1 (human)): 94.6%
residual activity (CDK2 CCNE1 (human); ATP 10 µM): 97.3%
residual activity (STK33 (human)): 106%
residual activity (EPHA2 (human)): 105%
residual activity (MAPKAPK3 (human)): 109%
residual activity (MARK1 (human)): 99.7%
residual activity (DYRK1B (human)): 97.1%
residual activity (TXK (human)): 100%
residual activity (CHUK (human)): 95%
residual activity (TSSK1B (human)): 106%
residual activity (RPS6KA1 KD1 KD2 (human)): 97.9%
residual activity (BLK (human)): 102%
